# Columns and labels:
# Test in all cases: relative viability (nuclei count vs DMSO), 5 days (fraction); higher = more cells survive
# [1] = compound: CO[C@H]1C[C@@H]2CC[C@@H](C)[C@@](O)(O2)C(=O)C(=O)N2CCCC[C@H]2C(=O)O[C@H]([C@H](C)C[C@@H]2CC[C@@H](OCCO)[C@H](OC)C2)CC(=O)[C@H](C)/C=C(\C)[C@@H](O)[C@@H](OC)C(=O)[C@H](C)C[C@H](C)/C=C/C=C/C=C/1C [Everolimus] + COc1cc2c(Oc3ccc(NC(=O)C4(C(=O)Nc5ccc(F)cc5)CC4)cc3F)ccnc2cc1OCCCN1CCOCC1 [Foretinib] (partner 0.25 µM)
# How it was run: (§1)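 Values are medians from duplicate plates. Each reflects relative viability, defined as the nuclei count of treated wells over that of vehicle wells. Lung cancer cell lines in 1536-well plates were pin-tool dosed one day after seeding with one drug alone or with a fixed anchor-drug dose plus five library-drug doses (not always all listed) in √10 steps, then fixed, stained and imaged at 4× after 5 days.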
# [2] = compound: CO[C@H]1C[C@@H]2CC[C@@H](C)[C@@](O)(O2)C(=O)C(=O)N2CCCC[C@H]2C(=O)O[C@H]([C@H](C)C[C@@H]2CC[C@@H](OCCO)[C@H](OC)C2)CC(=O)[C@H](C)/C=C(\C)[C@@H](O)[C@@H](OC)C(=O)[C@H](C)C[C@H](C)/C=C/C=C/C=C/1C [Everolimus] + Cc1nc(Nc2ncc(C(=O)Nc3c(C)cccc3Cl)s2)cc(N2CCN(CCO)CC2)n1 [Dasatinib] (partner 0.075 µM)
# How it was run: as §1
# [3] = compound: CO[C@H]1C[C@@H]2CC[C@@H](C)[C@@](O)(O2)C(=O)C(=O)N2CCCC[C@H]2C(=O)O[C@H]([C@H](C)C[C@@H]2CC[C@@H](OCCO)[C@H](OC)C2)CC(=O)[C@H](C)/C=C(\C)[C@@H](O)[C@@H](OC)C(=O)[C@H](C)C[C@H](C)/C=C/C=C/C=C/1C [Everolimus] + CCNC(=O)c1noc(-c2cc(C(C)C)c(O)cc2O)c1-c1ccc(CN2CCOCC2)cc1 [Luminespib] (partner 0.01 µM)
# How it was run: as §1
# [4] = compound: CO[C@H]1C[C@@H]2CC[C@@H](C)[C@@](O)(O2)C(=O)C(=O)N2CCCC[C@H]2C(=O)O[C@H]([C@H](C)C[C@@H]2CC[C@@H](OCCO)[C@H](OC)C2)CC(=O)[C@H](C)/C=C(\C)[C@@H](O)[C@@H](OC)C(=O)[C@H](C)C[C@H](C)/C=C/C=C/C=C/1C [Everolimus] + Nc1ncn([C@H]2C[C@H](O)[C@@H](CO)O2)c(=O)n1 [Decitabine] (partner 2 µM)
# How it was run: as §1
Cell Line,relative viability ([1]; first compound 0.01 µM),relative viability ([1]; first compound 0.03162 µM),relative viability ([1]; first compound 0.1 µM),relative viability ([1]; first compound 0.3162 µM),relative viability ([1]; first compound 1 µM),relative viability ([2]; first compound 0.01 µM),relative viability ([2]; first compound 0.03162 µM),relative viability ([2]; first compound 0.1 µM),relative viability ([2]; first compound 0.3162 µM),relative viability ([2]; first compound 1 µM),relative viability ([3]; first compound 0.01 µM),relative viability ([3]; first compound 0.03162 µM),relative viability ([3]; first compound 0.1 µM),relative viability ([3]; first compound 0.3162 µM),relative viability ([3]; first compound 1 µM),relative viability ([4]; first compound 0.01 µM),relative viability ([4]; first compound 0.03162 µM),relative viability ([4]; first compound 0.1 µM),relative viability ([4]; first compound 0.3162 µM),relative viability ([4]; first compound 1 µM)
NCI-H23,0.751,0.654,0.527,0.529,0.517,0.406,0.371,0.386,0.391,0.484,0.211,0.2,0.21,0.232,0.218,0.264,0.283,0.257,0.259,0.254
NCI-H322M,0.695,0.655,0.666,0.78,0.73,0.243,0.245,0.245,0.243,0.244,0.579,0.568,0.387,0.554,0.543,0.766,0.7,0.585,0.596,0.609
NCI-H358,0.432,0.45,0.496,0.388,0.432,0.115,0.138,0.133,0.0942,0.114,0.325,0.237,0.196,0.214,0.206,0.204,0.195,0.218,0.19,0.205
NCI-H441,0.972,0.863,0.726,0.833,0.659,0.55,0.501,0.431,0.504,0.47,0.272,0.267,0.223,0.271,0.234,0.257,0.243,0.194,0.261,0.29
NCI-H460,1.01,1.01,0.969,0.942,1.11,0.38,0.38,0.323,0.203,0.298,0.0198,0.0198,0.0232,0.0224,0.0194,0.498,0.53,0.506,0.369,0.421
NCI-H520,0.478,0.335,0.321,0.434,0.349,0.118,0.143,0.176,0.144,0.176,0.23,0.237,0.215,0.235,0.206,0.273,0.281,0.26,0.287,0.294
NCI-H596,0.435,0.494,0.512,0.442,0.477,0.395,0.428,0.392,0.462,0.482,0.636,0.5,0.379,0.533,0.519,0.761,0.595,0.739,0.69,0.605
NCI-H647,0.957,0.697,0.646,0.776,0.612,0.15,0.198,0.184,0.145,0.157,0.11,0.143,0.111,0.107,0.142,0.16,0.157,0.101,0.0533,0.158
NCI-H650,1.01,,0.842,0.816,0.649,0.363,,0.357,0.361,0.307,0.858,,0.511,0.609,0.345,0.316,0.287,0.335,0.281,0.318
NCI-H661,0.876,0.702,0.738,0.73,0.664,0.694,0.56,0.575,0.615,0.472,0.821,0.767,0.659,0.688,0.534,0.429,0.429,0.428,0.435,0.397
NCI-H727,0.67,0.569,0.611,0.603,0.425,0.242,0.317,,0.445,0.276,0.47,0.372,,0.345,0.365,0.73,0.594,0.591,0.642,0.617
NCI-H838,0.586,0.629,0.518,0.551,0.56,0.262,0.243,0.265,0.274,0.333,0.206,0.153,0.198,0.172,0.266,0.435,0.444,0.356,0.384,0.392
NCI-H1355,0.606,0.548,0.477,0.421,0.482,0.436,0.402,0.315,0.334,0.316,0.302,0.33,0.268,0.258,0.265,0.353,0.3,0.305,0.318,0.261
NCI-H1395,0.901,0.683,0.727,0.617,0.627,0.345,0.396,0.395,0.358,0.336,0.581,0.522,0.532,0.449,0.537,0.59,0.6,0.563,0.574,0.6
NCI-H1437,1.29,1.18,1.21,1.23,1.15,0.243,0.267,0.21,0.209,0.317,1.12,1.11,1.08,1.06,0.948,0.597,0.483,0.59,0.461,0.466

# From the supplement of paper PMC10307832
